Data taken from ChEMBL document CHEMBL1759841, “8-Hydroxynaphthalene-1,4-dione derivative as novel compound for glioma treatment” (Bioorg Med Chem Lett, 2011).

Columns and labels:
[1] = Inhibition of CK2
[2] = Inhibition of CK1
Aurora kinase A = molecular target: T1, Aurora kinase A (Homo sapiens, UniProt O14965); assay: Inhibition of Aurora A
T1 sequence (O14965 whole entry): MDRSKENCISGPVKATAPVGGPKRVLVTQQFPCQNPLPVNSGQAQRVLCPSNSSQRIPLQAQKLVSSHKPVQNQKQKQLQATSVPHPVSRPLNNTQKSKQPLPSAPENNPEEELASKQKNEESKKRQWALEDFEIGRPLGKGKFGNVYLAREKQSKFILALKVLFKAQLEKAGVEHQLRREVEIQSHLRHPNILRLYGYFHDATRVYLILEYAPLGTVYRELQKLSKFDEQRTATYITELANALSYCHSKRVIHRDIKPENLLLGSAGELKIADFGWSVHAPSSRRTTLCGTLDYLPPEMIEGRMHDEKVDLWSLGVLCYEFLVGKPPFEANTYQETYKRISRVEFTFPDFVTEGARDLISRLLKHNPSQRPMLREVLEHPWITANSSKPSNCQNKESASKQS

[3] = molecular target: Dual specificity tyrosine-phosphorylation-regulated kinase 1A (Homo sapiens, UniProt Q13627); assay: Inhibition of DYRK1a
[4] = Inhibition of PKA

| Compound | IC50 [1] [µM] | IC50 [2] [µM] | IC50 (Aurora kinase A) [µM] | IC50 [3] [µM] | IC50 [4] [µM] |
| --- | --- | --- | --- | --- | --- |
| Cc1ccc(S(=O)(=O)Oc2ccc3ccc(O)cc3c2)cc1 | > 40 | > 40 | – | – | – |
| CC1c2cc(Br)c(O)c(Br)c2OC(=O)C1Br (stereo unspecified) | 2 | > 40 | – | – | – |
| O=C1NC(=O)C(=Cc2ccc(O)cc2O)C(=O)N1 | > 40 | > 40 | – | – | – |
| O=C1C=C(c2ccc(O)c(O)c2O)C(=O)c2c(O)ccc(O)c21 | 3.5 | > 40 | 6.2 | 21.4 | – |
| C[N+]1(Cc2cc(O)c3c(c2)C(=O)c2cccc(O)c2C3=O)CCOCC1 | > 40 | 10 | – | – | – |
| C[N+](C)(C)CC(=O)OCc1cc(O)c2c(c1)C(=O)c1cccc(O)c1C2=O | > 40 | > 40 | – | – | – |
| CCN(CC)CCC(=O)Nc1ccc(O)c2c1C(=O)c1cccc(O)c1C2=O | > 40 | > 40 | – | – | – |
| O=C1C=C(c2ccc(O)c(O)c2O)C(=O)c2c1cccc2[N+](=O)[O-] | 23 | > 40 | 4.8 | – | 14 |
| O=c1ccc2cc(S(=O)(=O)N3CCNCC3)cc(Cl)c2o1 | > 40 | > 40 | – | – | – |
| Cc1coc2cc3oc(=O)c(NC(=O)CN)cc3cc12 | > 40 | > 40 | – | – | – |
| CN(C)c1ccc(C=C2C(=O)NC(=O)NC2=O)cc1 | > 40 | > 40 | – | – | – |
